Structures can show the parent of a compound that is named as a salt.
Legend:
Type in all cases: physicochemical
[1] = Crystallisation tests of salts with pharmaceutically acceptable bases; conditions: for Solid form obtained: salt crystallisation tests
Text: Crystallisation tests of salts of 5-cyclopropyl-2-{[2-(2,6-difluorophenyl)pyrimidin-5-yl]amino}benzoic acid with a broad range of pharmaceutically acceptable bases (comprising among others ammonia, L-arginine, choline, lysine, magnesium methoxide, meglumine, potassium methoxide and sodium hydroxide) in a range of different pharmaceutically acceptable solvents (including among others acetone, acetonitrile, ethyl acetate, chloroform, N,N-dimethylformamide, ethanol, isopropanol, nitromethane, dimethyl carbonate, methanol, methyl tert-butyl ether, tetrahydrofurane, diisopropyl ether, cyclohexane, butanol, water, 3-pentanone, toluene, chlorobenzene and isobutyl acetate) have been undertaken.
The salts from L-arginine, choline, magnesium methoxide and potassium methoxide were crystalline but hygroscopic. Additionally, some of said salts have different polymorphic phases.

[2] = Differential scanning calorimetry (DSC) thermogram; conditions: heated 30 to 350° C. at 10° C./min
Description: The differential scanning calorimetry (DSC) thermograms analyses were obtained using a DSC-821 Mettler-Toledo instrument, serial number 5117423874. Samples were weighed into an aluminium pan, an aluminium lid placed on top of the sample and compressed with a brass rod. Samples were equilibrated at 30° C. and heated at 10° C./min to 350° C. The instrument was calibrated using indium and zinc standards.
FIG. 1 illustrates the DSC thermogram of the sodium salt of 5-cyclopropyl-2-{[2-(2,6-difluorophenyl)pyrimidin-5-yl]amino}benzoic acid.

[3] = Dynamic Vapour Sorption (DVS) profile; conditions: 25° C.
Description: Dynamic Vapour Sorption (DVS) profiles were obtained using an Igasorp Hiden Isochema instrument (serial number IGA-SA-066). After an initial stabilization period, at least two isotherms (at 25° C.) were obtained for each sample: a moisture sorption from 0 to 95% relative humidity and moisture desorption from 95% relative humidity to dryness. Both isotherms were performed in 10% humidity steps, with a minimum time of 10 minutes and a maximum time of 30 minutes for each step.
FIG. 2 illustrates the DVS pattern of the sodium salt of 5-cyclopropyl-2-{[2-(2,6-difluorophenyl)pyrimidin-5-yl]amino}benzoic acid. Mass increase was measured at 80% (0.7% increase) and 90% (4.2% increase) relative humidity (RH).

Water-solubility test = conditions: 25° C. (room temperature), expressed as acid
Description: The solubility of Example 1 in water at room temperature was determined together with the solubility of the corresponding free acids.

In the case of O=C(O)c1cc(C2CC2)ccc1Nc1cnc(-c2c(F)cccc2F)nc1 [Ex. 1, 5-cyclopropyl-2-{[2-(2,6-difluorophenyl)pyrimidin-5-yl]amino}benzoic acid, sodium salt], the “Hygroscopicity / deliquescence of the salt” value [1] is reported as “neither hygroscopic nor deliquescent”, the “Thermal stability (decomposition) by DSC” value [2] is reported as “does not suffer any decomposition at low-medium temperatures” and the “Mass increase (DVS)” value ([3]; 80% relative humidity) is reported as 0.7%. For the same compound, the “Mass increase (DVS)” value ([3]; 90% relative humidity) was 4.2%, the “Hygroscopicity according to DVS” value ([3]; sorption 0 to 95% RH) was “not hygroscopic” and the “Hysteresis in DVS sorption/desorption” value ([3]; sorption/desorption isotherms) was “no hysteresis”. The “Water Solubility @ 25° C. (mg/mL as acid)” value (Water-solubility test; sodium salt) was 1.87 mg/mL.
For O=C(O)c1cc(C2CC2)ccc1Nc1cnc(-c2c(F)cccc2F)nc1 [Example C1, 5-cyclopropyl-2-{[2-(2,6-difluorophenyl)pyrimidin-5-yl]amino}benzoic acid], the “Water Solubility @ 25° C. (mg/mL as acid)” value (Water-solubility test) was 0.03 mg/mL.
With N=C(N)NCCCC(N)C(=O)O.O=C(O)c1cc(C2CC2)ccc1Nc1cnc(-c2c(F)cccc2F)nc1 [salt from L-arginine] the “Hygroscopicity / deliquescence of the salt” value [1] was “hygroscopic” and the Solid form obtained [1] was “crystalline”.
For C[N+](C)(C)CCO.O=C([O-])c1cc(C2CC2)ccc1Nc1cnc(-c2c(F)cccc2F)nc1 [salt from choline], the “Hygroscopicity / deliquescence of the salt” value [1] was “hygroscopic” and the Solid form obtained [1] was “crystalline”.
For NCCCCC(N)C(=O)O.O=C(O)c1cc(C2CC2)ccc1Nc1cnc(-c2c(F)cccc2F)nc1 [salt from lysine], the Solid form obtained [1] was “either oils or amorphous solids”.
With CNCC(O)C(O)C(O)C(O)CO.O=C(O)c1cc(C2CC2)ccc1Nc1cnc(-c2c(F)cccc2F)nc1 [salt from meglumine] the Solid form obtained [1] was “either oils or amorphous solids”.
For O=C([O-])c1cc(C2CC2)ccc1Nc1cnc(-c2c(F)cccc2F)nc1.[K+] [salt from potassium methoxide], the “Hygroscopicity / deliquescence of the salt” value [1] was “hygroscopic” and the Solid form obtained [1] was “crystalline”.
